For series [1], the system named is mouse pulmonary thromboembolism model. The series is described as follows: In vivo antithrombotic activity: acute pulmonary thromboembolism model induced by collagen-epinephrine mixture. Conditions: mice; for deaths per group: ten per group, oral 100 µmol/10 g, 15 min after thrombogenic stimulus; for % Protection / Paralyzed or Died Animals/Total: oral single dose 100 µmol/10 g body weight; for % Protection: [1 − (paralyzed + death animals)/total animals] × 100; for Paralyzed or Died Animals/Total: collagen (11 mg/kg) plus epinephrine (0.7 mg/kg) i.v. after 60 min, evaluated 15 min after stimulus.
Method: The antithrombotic effects of all compounds (3a,b, 4a,b, 8a,b, 9a,b, 13a,b and 14a,b) were evaluated in vivo using a mouse pulmonary thromboembolism model [18, 19].
In vivo pulmonary thromboembolism was induced in mice according to previously described procedures [18, 19]. Ten Swiss male mice (25−30 g) were used in each test group and the control group. Compounds (3a,b, 4a,b, 8a,b, 9a,b, 13a,b and 14a,b) and acetylsalicylic acid were given orally (100 µmol/10 g, 0.1 mL/10 g) using a 2% carboxymethylcellulose suspension as the vehicle. After 60 min, an intravenous injection of the thrombogenic stimulus containing a mixture of collagen (11 mg/kg) plus epinephrine (0.7 mg/kg) was administered through the tail vein. The dose of the pro-thrombotic mixture was previously characterized using a dose/response curve able to reliably reproduce 80%–90% mortality rate or animal paralysis [15]. The loss of the righting reflex was considered an indication of animal’s paralysis in the control group. The rates of animal survival and paralysis were evaluated 15 min after the administration of the thrombogenic stimulus. After this time, the animals were euthanized using carbon dioxide. […] The protection against acute pulmonary thromboembolism (percentage) was calculated as follows: [1 − (paralyzed + death animals)/total animals] × 100. The chi-square test was used to examine the difference between the control and treated groups.

For series [2], the system named is rat platelet-rich plasma. The series is described as follows: In vitro antiplatelet activity: platelet aggregation in rat platelet-rich plasma (turbidimetric method of Born and Cross). It is filed as cell-based. The following applies: compounds and ASA at 150 μM, rat PRP, n = 3; for inhibition at 150 µM: Platelet.
Method: In vitro antiplatelet activity was evaluated using rat platelet-rich plasma in the presence of ADP (10 μM), arachidonic acid (100 μM) and collagen (5 μg/mL) [15, 16].
Five rats (Wistar; 200–250 g) were previously anesthetized by inhalation of isoflurane using a vaporizing system. Animal breathing was monitored during all procedures. Blood was withdrawn from each rat’s aorta artery and mixed with 3.8% trisodium citrate (9:1 v/v). The animals were then euthanized by deepening of anesthesia. Platelet-rich plasma (PRP) was prepared by centrifugation at 375× g for 10 min at room temperature. The platelet-poor plasma (PPP) was prepared by centrifugation of the pellet at 1800× g for 10 min at room temperature. Platelet aggregation was monitored by the turbidimetric method of Born and Cross [16] using a Chrono-Log aggregometer. PRP (300 μL) was incubated at 37 °C for 1 min with continuous stirring at 900 rpm. ADP (10 μM), type I collagen (5 μg/mL; molecular weight of 115–130 kDa) and arachidonic acid (100 μM) were used to induce platelet aggregation. […] Acetylsalicylic acid (AAS, 150 μM) was used as positive control. The results were expressed as an inhibition percentage. The statistical analysis was performed using ANOVA followed by Tukey’ s test.
The test system of series [3] is micronucleated reticulocytes (MNRET) of mice. The series is described as follows: In vivo genotoxicity: micronucleus test in peripheral blood reticulocytes. On the procedure:
The genotoxicity induced by 14a was evaluated using the micronucleus test.
Compound 14a (250 mg/kg) and negative control (1% carboxymethylcellulose (CMC) suspension and 0.2% tween; 0.3 mL) were administered to the animals orally. The positive control group received cyclophosphamide (50 mg/kg; i.p.). Groups of 10 Swiss mice of both sexes (25−30 g) were used in each test and control group. After 30 h, the animals were anesthetized using a mixture of ketamine/xylazine (100/10 mg/kg; i.p.), and […] of blood were collected from the tail vein and added to laminas pre-stained with acridine orange. The animals were euthanized via deepening of anesthesia. One thousand reticulocytes per animal were counted, and the frequency of micronucleated cells was registered. […] When p < 0.05, the average values for the treatments were compared using the Tukey method, calculating the minimum significant difference at α = 0.05.

[4] abbreviates: aggregation induced by ADP 10 μM.
The mark [5] stands for this setting: aggregation induced by arachidonic acid 100 μM.
Where [6] appears, read: aggregation induced by collagen 5 μg/mL.
Setting [7] is: aggregation induced by ADP 10 μM, read-out: Platelet Inhibition (%) ADP (10 μM).
Setting [8] is: aggregation induced by collagen 5 μg/mL, read-out: Platelet Inhibition (%) Collagen (5 μg/mL).
Setting [9] is: aggregation induced by arachidonic acid 100 μM, read-out: Platelet Inhibition (%) Arachidonic Acid (100 μM).

The source of these data is article PMC6332090, “Synthesis and Preliminary Evaluation of N-Oxide Derivatives for the Prevention of Atherothrombotic Events” (Molecules, 2015).

Read-outs that look alike come from different tables or passages of the source. Marks after values point to notes of the source that are not given here. Where only a bound is given, the exact number is not on record here.

Consider “3-((2-(3-Hydroxybenzoyl)hydrazono)methyl)-4-methyl-1,2,5-oxadiazole 2-oxide [Compound 3a]”, for which, in series [1], the deaths per group entry is given as “two”, the “% Protection” value is on record as 40 * % and the “Paralyzed or Died Animals/Total” value is reported as 6/10. Moreover, the “Platelet Inhibition (%) ADP (10 μM)” value in series [2] (setting [4]) came out at 10.1 ± 3.3 %. Besides, the “Platelet Inhibition (%) Arachidonic Acid (100 μM)” value in series [2] (setting [5]) was 52.6 ± 4.1 %. For the same compound, in series [2] (setting [6]), the “Platelet Inhibition (%) Collagen (5 μg/mL)” value amounted to 17.5 ± 2.7 %.
With “3-((2-(4-Hydroxybenzoyl)hydrazono)methyl)-4-methyl-1,2,5-oxadiazole 2-oxide [Compound 3b]”, in series [1], the deaths per group entry is given as “two”, the “% Protection” value is given as 30 * % and the “Paralyzed or Died Animals/Total” value is on record as 7/10. The “Platelet Inhibition (%) ADP (10 μM)” value in series [2] (setting [4]) is 16.8 ± 2.9 %. Also, in series [2] (setting [5]), the “Platelet Inhibition (%) Arachidonic Acid (100 μM)” value is on record as 47.8 ± 3.7 %. For the same compound, in series [2] (setting [6]), the “Platelet Inhibition (%) Collagen (5 μg/mL)” value is on record as 10.5 ± 3.3 %.
Consider “5-((2-(3-Hydroxybenzoyl)hydrazono)methyl)benzo[c][1,2,5]oxadiazole 1-oxide [Compound 13a]”, for which, in series [1], the “% Protection” value is on record as 70 *^,† % and the “Paralyzed or Died Animals/Total” value is 3/10. Also, the “Platelet Inhibition (%) ADP (10 μM)” value in series [2] (setting [4]) is reported as 47.1 ± 2.5 %. Besides, in series [2] (setting [5]), the “Platelet Inhibition (%) Arachidonic Acid (100 μM)” value is 52.3 ± 3.8 %. The “Platelet Inhibition (%) Collagen (5 μg/mL)” value in series [2] (setting [6]) was found to be 45.1 ± 3.8 %.
For `CC(=O)Oc1ccccc1C(=O)O` [ASA, acetylsalicylic acid, reference compound], in series [1], the deaths per group entry was “two”, the “% Protection” value is 30 * % and the “Paralyzed or Died Animals/Total” value is 7/10. In addition, in series [2] (setting [7]), the inhibition at 150 µM was determined as 0%. Further, in series [2] (setting [8]), the inhibition at 150 µM stood at 77.1 ± 3.7%. In addition, the “Platelet Inhibition (%) ADP (10 μM)” value in series [2] (setting [4]) is given as “did not inhibit”. Also, the “Platelet Inhibition (%) Arachidonic Acid (100 μM)” value in series [2] (setting [5]) is on record as 72.2 ± 3.7 %.
With `O=C(NN=Cc1c(-c2ccccc2)no[n+]1[O-])c1cccc(O)c1` [Compound 8a, 3-((2-(3-Hydroxybenzoyl)hydrazono)methyl)-4-phenyl-1,2,5-oxadiazole 2-oxide], in series [1], the deaths per group entry was “two”, the “% Protection” value is 40 * % and the “Paralyzed or Died Animals/Total” value is on record as 6/10. Further, in series [2] (setting [7]), the inhibition at 150 µM was determined as 12.4 ± 3.7%. In addition, the inhibition at 150 µM in series [2] (setting [9]) worked out at 55.1 ± 4.3%. Further, the inhibition at 150 µM in series [2] (setting [8]) was determined as 21.8 ± 5.1%.
As to `O=C(NN=Cc1c(-c2ccccc2)no[n+]1[O-])c1ccc(O)cc1` [Compound 8b, 3-((2-(4-Hydroxybenzoyl)hydrazono)methyl)-4-phenyl-1,2,5-oxadiazole 2-oxide], in series [1], the deaths per group entry is “two”, the “% Protection” value is reported as 40 * % and the “Paralyzed or Died Animals/Total” value is recorded as 6/10. Besides, the inhibition at 150 µM in series [2] (setting [7]) came out at 9.2 ± 2.8%. Moreover, the inhibition at 150 µM in series [2] (setting [9]) was found to be 31.6 ± 3.9%. The inhibition at 150 µM in series [2] (setting [8]) worked out at 8.8 ± 3.6%.
With `CC(=O)Oc1ccccc1C(=O)Oc1cccc(C(=O)N/N=C/c2c(-c3ccccc3)no[n+]2[O-])c1` [Compound 9a, (E)-3-((2-(3-((2-Acetoxybenzoyl)oxy)benzoyl)hydrazono)methyl)-4-phenyl-1,2,5-oxadiazole 2-oxide], in series [1], the deaths per group result was “two”, the “% Protection” value was 30 * % and the “Paralyzed or Died Animals/Total” value is 7/10. Besides, the inhibition at 150 µM in series [2] (setting [7]) amounted to 53.4 ± 2.1%. Besides, the inhibition at 150 µM in series [2] (setting [9]) turned out to be 73.4 ± 3.3%. In addition, the inhibition at 150 µM in series [2] (setting [8]) was determined as 43.5 ± 4.7%.
On to `CC(=O)Oc1ccccc1C(=O)Oc1ccc(C(=O)N/N=C/c2c(-c3ccccc3)no[n+]2[O-])cc1` [Compound 9b, (E)-3-((2-(4-((2-Acetoxybenzoyl)oxy)benzoyl)hydrazono)methyl)-4-phenyl-1,2,5-oxadiazole 2-oxide], for which the “% Protection” value in series [1] is 50 *^,† %. The “Paralyzed or Died Animals/Total” value in series [1] is 5/10. Further, the results for the inhibition at 150 µM in series [2] (setting [7]), in series [2] (setting [9]) and in series [2] (setting [8]) were 68.8 ± 1.3%, 82.7 ± 2.1% and 47.2 ± 2.9%, respectively.
`O=C(NN=Cc1ccc2c(c1)no[n+]2[O-])c1ccc(O)cc1` [Compound 13b, 5-((2-(4-Hydroxybenzoyl)hydrazono)methyl)benzo[c][1,2,5]oxadiazole 1-oxide]: in series [1], the “% Protection” value is on record as 70 *^,† % and the “Paralyzed or Died Animals/Total” value was 3/10. Also, the “Platelet Inhibition (%) ADP (10 μM)” value in series [2] (setting [4]) stood at 44.2 ± 5.1 %. Besides, the “Platelet Inhibition (%) Arachidonic Acid (100 μM)” value in series [2] (setting [5]) is 57.8 ± 4.9 %. Further, the “Platelet Inhibition (%) Collagen (5 μg/mL)” value in series [2] (setting [6]) is on record as 43.0 ± 3.1 %.
Consider `CC(=O)Oc1ccccc1C(=O)Oc1cccc(C(=O)N/N=C/c2ccc3c(c2)no[n+]3[O-])c1` [Compound 14a, (E)-5-((2-(3-((2-Acetoxybenzoyl)oxy)benzoyl)hydrazono)methyl)benzo[c][1,2,5]oxadiazole 1-oxide], for which, in series [1], the “% Protection” value is 80 *^,† % and the “Paralyzed or Died Animals/Total” value is reported as 2/10. The “micronucleated reticulocytes (MNRET), frequency in 1000 cells” value in series [3] (mouse, in vivo, po, 250 mg/kg) is listed as less than 4. Moreover, the “Platelet Inhibition (%) Arachidonic Acid (100 μM)” value in series [2] (setting [5]) was found to be 76.9 ± 3.1 %. The “Platelet Inhibition (%) Collagen (5 μg/mL)” value in series [2] (setting [6]) was determined as 85.3 ± 3.7 %.
For `CC(=O)Oc1ccccc1C(=O)Oc1ccc(C(=O)N/N=C/c2ccc3c(c2)no[n+]3[O-])cc1` [Compound 14b, (E)-5-((2-(4-((2-Acetoxybenzoyl)oxy)benzoyl)hydrazono)methyl)benzo[c][1,2,5]oxadiazole 1-oxide], in series [1], the “% Protection” value is recorded as 70 *^,† % and the “Paralyzed or Died Animals/Total” value is on record as 3/10. In addition, the “Platelet Inhibition (%) Arachidonic Acid (100 μM)” value in series [2] (setting [5]) was determined as 79.1 ± 1.9 %. Also, in series [2] (setting [6]), the “Platelet Inhibition (%) Collagen (5 μg/mL)” value is given as 79.8 ± 3.4 %.
In the case of `O=P1(N(CCCl)CCCl)NCCCO1` (stereo not drawn) [Cyclophosphamide, reference compound], the “micronucleated reticulocytes (MNRET), frequency in 1000 cells” value in series [3] (mice, positive control 50 mg/kg i.p., blood collected after 30 h, mean ± SD) amounted to 41 ± 5.
On to “(E)-3-((2-(3-((2-Acetoxybenzoyl)oxy)benzoyl)hydrazono)methyl)-4-methyl-1,2,5-oxadiazole 2-oxide [Compound 4a]”, for which, in series [1], the deaths per group result was “two”, the “% Protection” value is on record as 40 * % and the “Paralyzed or Died Animals/Total” value is 6/10. The “Platelet Inhibition (%) ADP (10 μM)” value in series [2] (setting [4]) is on record as 65.6 ± 2.4 %. Moreover, in series [2] (setting [5]), the “Platelet Inhibition (%) Arachidonic Acid (100 μM)” value is 70.1 ± 2.9 %. Also, in series [2] (setting [6]), the “Platelet Inhibition (%) Collagen (5 μg/mL)” value is listed as 37.8 ± 4.1 %.
For the compound “(E)-3-((2-(4-((2-Acetoxybenzoyl)oxy)benzoyl)hydrazono)methyl)-4-methyl-1,2,5-oxadiazole 2-oxide [Compound 4b]”, in series [1], the “% Protection” value is recorded as 50 *^,† % and the “Paralyzed or Died Animals/Total” value was 5/10. In series [2] (setting [5]), the “Platelet Inhibition (%) Arachidonic Acid (100 μM)” value was determined as 87.5 ± 2.6 %. Moreover, the “Platelet Inhibition (%) Collagen (5 μg/mL)” value in series [2] (setting [6]) was determined as 34.5 ± 3.5 %.
